Test results taken from patent US8044053B2, “Sulfonamide substituted pyrazoline compounds, their preparation and use as CB1 modulators” (Laboratories del Dr. Esteve, S.A., priority 2006, dated 2011).
Counter-ions that a name gives are not always drawn.

Biological target: CB1-receptor (UniProt P20272)
Assay: In-vitro determination of affinity (binding) to CB1-receptors, radioligand [3H]-CP55940
Design: IC50; Ki; species or system human or rat
Conditions: Pharmacological Methods Part I
Protocol: I. In-Vitro Determination of Affinity to CB1/CB2-Receptors
The in-vitro determination of the affinity of the inventive substituted pyrazoline compounds to CB1/CB2-Rezeptors is carried out as described in the publication of Ruth A. Ross, Heather C. Brockie et al., “Agonist-inverse agonist characterisation at CB1 and CB2 cannabinoid receptors of L-759633, L759656 and AM630”, British Journal of Pharmacology, 126, 665-672, (1999), whereby the transfected human CB1 and CB2 receptors of Receptor Biology, Inc. are used. The radioligand used for both receptors is [^3H]-CP55940. The respective parts of the description is hereby incorporated by reference and forms part of the present disclosure.
Rat Cerebellum CB1 Binding
Binding affinity to CB1 receptor was evaluated according to a modification of the method described by Govaerts et al., Eur J Pharmac Sci 23, 233-243 (2004). The respective parts of the description is hereby incorporated by reference and forms part of the present disclosure.
Briefly, cerebellum from male wistar rats (250-300 g) were carefully dissected on ice and homogenates were prepared with Potter-Helveheim in a cold 50 mM Tris-HCl solution containing 5 mM MgCl2, 1 mM EDTA and 0.25 M sucrose, pH 7.4. The suspension was centrifuged at 1,000×g for 5 minutes. The supernatants were collected and centrifuged 50,000×g for 15 minutes. The resulting pellets were then resuspended in Tris-HCl buffer without sucrose, homogenised and incubated for 15 min at 37° C. in an orbital shaker bath and centrifuged again at 50,000×g for 15 min. Pellets were weighted, resuspended in Tris-HCl buffer without sucrose, homogenised with Ultraturrax at 13,500 rpm for 3×5 seconds and alicuoted in 0.9 ml volumes in Eppendorf tubes. Alicuotes were centrifuged at 20,800×g for 5 minutes, supernatants discarded and pellets were frozen at −80° C. until use. Total protein concentration was determined using the Bio-Rad Lowry method based kit. Competitive binding experiments were performed in presence of 1 nM [^3H]-CP 55,940 in siliconised glass tubes containing 100 μg protein/tube resuspended in 1 ml final volume of 50 mM Tris-HCl, 5 mM MgCl2, 1 mM EDTA, 0.5% (w/v) bovine serum albumin, pH 7.4. Compounds were present at various concentrations and the non specific binding was determined in the presence of 10 μM HU-210. After 1 hour incubation at 30° C., the suspension was rapidly filtered through 0.5% PEI pre-treated GF/B fiber filters on a 96-well harvester and washed 3 times with 3 ml ice-cold binding buffer without bovine serum albumin. Radioactivity on filters was measured with Wallac Winspectral 1414 counter by liquid scintillation in 6 ml Ecoscint H (National Diagnostics, U.K.). Assays were made in triplicates.
Binding data were analysed by non-linear regression with the software GraphPad Prism Version 3.03.
The binding of the pyrazoline compounds of general formulae I, Ia and Ib to CB1-receptors was determined according to the method described in the section Pharmacological Methods, Part I.

Structure (SMILES) | IC50 [nM] | Ki [nM]
COc1ccc(C2CC(CNS(=O)(=O)c3ccccc3Cl)=NN2c2ccc(Cl)cc2Cl)cc1 (stereo not drawn) [Example 217, 2-Chloro-N-[1-(2,4-dichloro-phenyl)-5-(4-methoxy-phenyl)-4,5-dihydro-1H-pyrazol-3-ylmethyl]-benzenesulfonamide] | 69 | 30.8
Cc1ccc(C)c(S(=O)(=O)NCC2=NN(c3ccc(Cl)cc3Cl)C(c3ccc(Br)cc3)C2)c1 (stereo not drawn) [Example 280, N-[5-(4-Bromo-phenyl)-1-(2,4-dichloro-phenyl)-4,5-dihydro-1H-pyrazol-3-ylmethyl]-2,5-dimethyl-benzenesulfonamide] | 42 | 17.5
O=S(=O)(NCC1=NN(c2ccc(Cl)cc2Cl)C(c2ccc(Cl)cc2)C1)c1cccnc1 (stereo not drawn) [Example 53, Pyridine-3-sulfonic acid [5-(4-chloro-phenyl)-1-(2,4-dichloro-phenyl)-4,5-dihydro-1H-pyrazol-3-ylmethyl]-amide hydrochloride] | 88.2 | 43.2
O=S(=O)(NCC1=NN(c2ccc(Cl)cc2Cl)[C@@H](c2ccc(Cl)cc2)C1)c1cc(Cl)ccc1F [Example 106, (R)-5-Chloro-N-[5-(4-chloro-phenyl)-1-(2,4-dichloro-phenyl)-4,5-dihydro-1H-pyrazol-3-ylmethyl]-2-fluoro-benzenesulfonamide] | 28.5 | 11.9
O=[N+]([O-])c1cccc(S(=O)(=O)NCC2=NN(c3ccc(Cl)cc3Cl)C(c3ccc(Cl)cc3)C2)c1 (stereo not drawn) [Example 144, N-[5-(4-Chloro-phenyl)-1-(2,4-dichloro-phenyl)-4,5-dihydro-1H-pyrazol-3-ylmethyl]-3-nitro-benzenesulfonamide] | 55 | 23.2
CCOc1ccc(C2CC(CNS(=O)(=O)c3ccccc3F)=NN2c2ccc(Cl)cc2Cl)cc1 (stereo not drawn) [Example 98, N-[1-(2,4-Dichloro-phenyl)-5-(4-ethoxy-phenyl)-4,5-dihydro-1H-pyrazol-3-ylmethyl]-2-fluoro-benzenesulfonafonamide] | 47.1 | 19.8
CCOc1ccc(C2CC(CNS(=O)(=O)c3cccc(Cl)c3F)=NN2c2ccc(Cl)cc2Cl)cc1 (stereo not drawn) [Example 250, 3-Chloro-N-[1-(2,4-dichloro-phenyl)-5-(4-ethoxy-phenyl)-4,5-dihydro-1H-pyrazol-3-ylmethyl]-2-fluoro-benzenesulfonamide] | 39.7 | 16.6
O=S(=O)(NCC1=NN(c2ccc(Cl)cc2Cl)C(c2ccc(Cl)cc2)C1)c1cc(Cl)ccc1Cl (stereo not drawn) [Example 139, 2,5-Dichloro-N-[5-(4-chloro-phenyl)-1-(2,4-dichloro-phenyl)-4,5-dihydro-1H-pyrazol-3-ylmethyl]-benzenesulfonamide] | 16.5 | 7
COc1ccc(C2CC(CNS(=O)(=O)c3cccc(Cl)c3)=NN2c2ccc(Cl)cc2Cl)cc1 (stereo not drawn) [Example 225, 3-Chloro-N-[1-(2,4-dichloro-phenyl)-5-(4-methoxy-phenyl)-4,5-dihydro-1H-pyrazol-3-ylmethyl]-benzenesulfonamide] | 90.1 | 39.7
CCOc1ccc(C2CC(CNS(=O)(=O)c3cc(Cl)ccc3F)=NN2c2ccc(Cl)cc2Cl)cc1 (stereo not drawn) [Example 100, 5-Chloro-N-[1-(2,4-dichloro-phenyl)-5-(4-ethoxy-phenyl)-4,5-dihydro-1H-pyrazol-3-ylmethyl]-2-fluoro-benzenesulfonamide] | 30.8 | 12.8
O=S(=O)(NCC1=NN(c2ccc(Cl)cc2Cl)[C@@H](c2ccc(Cl)cc2)C1)c1ccccc1 [Example 194, (R)-N-[5-(4-Chloro-phenyl)-1-(2,4-dichloro-phenyl)-4,5-dihydro-1H-pyrazol-3-ylmethyl]-benzenesulfonamide] | 88.9 | 38.3
Cc1ccc(F)cc1S(=O)(=O)NCC1=NN(c2ccc(Cl)cc2Cl)C(c2ccc(Br)cc2)C1 (stereo not drawn) [Example 277, N-[5-(4-Bromo-phenyl)-1-(2,4-dichloro-phenyl)-4,5-dihydro-1H-pyrazol-3-ylmethyl]-5-fluoro-2-methyl-benzenesulfonamide] | 43 | 18.2
COc1ccc(C2CC(CNS(=O)(=O)c3cccc(OC)c3)=NN2c2ccc(Cl)cc2Cl)cc1 (stereo not drawn) [Example 221, N-[1-(2,4-Dichloro-phenyl)-5-(4-methoxy-phenyl)-4,5-dihydro-1H-pyrazol-3-ylmethyl]-3-methoxy-benzenesulfonamide] | 52.7 | 23.5
COc1ccc(C2CC(CNS(=O)(=O)c3cc(Cl)ccc3F)=NN2c2ccc(Cl)cc2Cl)cc1 (stereo not drawn) [Example 94, 5-Chloro-N-[1-(2,4-dichloro-phenyl)-5-(4-methoxy-phenyl)-4,5-dihydro-1-pyrazol-3-ylmethyl]-2-fluoro-benzenesulfonamide] | 74 | 33
O=S(=O)(NCC1=NN(c2ccc(Cl)cc2Cl)C(c2ccc(Cl)cc2)C1)c1ccccc1Br (stereo not drawn) [Example 136, 2-Bromo-N-[5-(4-chloro-phenyl)-1-(2,4-dichloro-phenyl)-4,5-dihydro-1H-pyrazol-3-ylmethyl]-benzenesulfonamide] | 40 | 16.9
CCOc1ccc(C2CC(CNS(=O)(=O)c3cccc(Cl)c3Cl)=NN2c2ccc(Cl)cc2Cl)cc1 (stereo not drawn) [Example 248, 2,3-Dichloro-N-[1-(2,4-dichloro-phenyl)-5-(4-ethoxy-phenyl)-4,5-dihydro-1H-pyrazol-3-ylmethyl]-benzenesulfonamide] | 17.9 | 7.6

The next compounds have a lower IC50 than those just listed; values first:

IC50 [nM] | Ki [nM] | Structure (SMILES)
15.2 | 6.9 | O=S(=O)(NCC1=NN(c2ccc(Cl)cc2Cl)C(c2ccc(Cl)cc2)C1)c1cc(C(F)(F)F)ccc1Cl (stereo not drawn) [Example 81, 2-Chloro-N-[5-(4-chloro-phenyl)-1-(2,4-dichloro-phenyl)-4,5-dihydro-1H-pyrazol-3-ylmethyl]-5-trifluoromethyl-benzenesulfonamide]
13.4 | 5.7 | CCOc1ccc(C2CC(CNS(=O)(=O)c3c(C)cc(C)cc3C)=NN2c2ccc(Cl)cc2Cl)cc1 (stereo not drawn) [Example 272, N-[1-(2,4-Dichloro-phenyl)-5-(4-ethoxy-phenyl)-4,5-dihydro-1H-pyrazol-3-ylmethyl]-2,4,6-trimethyl-benzenesulfonamide]
12.1 | 5.3 | CCOc1ccc(C2CC(CNS(=O)(=O)c3cc(C)ccc3C)=NN2c2ccc(Cl)cc2Cl)cc1 (stereo not drawn) [Example 103, N-[1-(2,4-Dichloro-phenyl)-5-(4-ethoxy-phenyl)-4,5-dihydro-1H-pyrazol-3-ylmethyl]-2,5-dimethyl-benzenesulfonamide]
11.8 | 5.3 | Cc1ccc(F)cc1S(=O)(=O)NCC1=NN(c2ccc(Cl)cc2Cl)[C@@H](c2ccc(Cl)cc2)[C@H]1C (racemic) [Example 73, cis-(4RS,5RS)-N-[5-(4-Chloro-phenyl)-1-(2,4-dichloro-phenyl)-4-methyl-4,5-dihydro-1H-pyrazol-3-ylmethyl]-5-fluoro-2-methyl-benzenesulfonamide]
11 | 5.1 | Cc1ccc(F)cc1S(=O)(=O)NCC1=NN(c2ccc(Cl)cc2Cl)[C@@H](c2ccc(Cl)cc2)[C@H]1C [Example 74, (4R,5R)-N-[5-(4-Chloro-phenyl)-1-(2,4-dichloro-phenyl)-4-methyl-4,5-dihydro-1H-pyrazol-3-ylmethyl]-5-fluoro-2-methyl-benzenesulfonamide]
7.2 | 3 | CCOc1ccc(C2CC(CNS(=O)(=O)c3cc(F)ccc3C)=NN2c2ccc(Cl)cc2Cl)cc1 (stereo not drawn) [Example 102, N-[1-(2,4-Dichloro-phenyl)-5-(4-ethoxy-phenyl)-4,5-dihydro-1H-pyrazol-3-ylmethyl]-5-fluoro-2-methyl-benzenesulfonamide]
5.6 | 2.4 | CCOc1ccc(C2CC(CNS(=O)(=O)c3ccccc3Br)=NN2c2ccc(Cl)cc2Cl)cc1 (stereo not drawn) [Example 249, 2-Bromo-N-[1-(2,4-dichloro-phenyl)-5-(4-ethoxy-phenyl)-4,5-dihydro-1H-pyrazol-3-ylmethyl]-benzenesulfonamide]
5.5 | 2.3 | Cc1ccc([N+](=O)[O-])cc1S(=O)(=O)NCC1=NN(c2ccc(Cl)cc2Cl)C(c2ccc(Cl)cc2)C1 (stereo not drawn) [Example 142, N-[5-(4-Chloro-phenyl)-1-(2,4-dichloro-phenyl)-4,5-dihydro-1H-pyrazol-3-ylmethyl]-2-methyl-5-nitro-benzenesulfonamide]
